Experimental data: US9243254B2, “Method for transforming a bacterium belonging to the streptococcus genus by natural competence” (priority 2009, dated 2016)

Experiments:
Assay type in all cases: cell-based, Streptococcus thermophilus
[1] = system: LMD9-Δblp::PcomX-luxABΔshp316::P32-cat; test: Natural transformation in CDM of the shp316-deleted strain upon addition of synthetic peptides (test A); conditions: for Transformation rate, With peptide addition / Restoration of the competence defect: 1 μM synthetic peptide; for Transformation rate, With peptide addition / Transformation rate: 1 μg/mL pGIUD0855ery; for Transformation rate, With peptide addition: CDM, erythromycin selection
Method: A mutant strain of LMD-9 in which the shp316 gene (which is the gene encoding the peptide Shp316) has been inactivated, such as strain LMD9-Δblp::PcomX-luxABΔshp316::P32-cat (see Example 2 for details on this strain) is pre-cultivated in M17-lactose medium. The cells of the preculture are harvested (5000 g, 9 minutes, 20° C.) and washed twice in Chemically Defined Medium (CDM, see Annex I) and then resuspended in CDM. The washed cells are diluted in fresh CDM medium to obtain an optical density of 0.05 at 600 nm, and then incubated at 37° C. After 1.5 h of incubation, the culture is separated in 2 aliquots of 10 mL and 0 or 1000 nM of peptide are added in the culture samples. Finally, each 10 mL-aliquot is divided in 2 samples of 5 mL each. One of the 2 samples receives 1 μg/mL pGIUD0855ery, a plasmid bearing an erythromycin resistance gene. The competence phenotype of the samples is studied by performing natural transformation experiments as described in example 1. The cultures are grown for 6 hours and serial dilutions are plated on the surface of M17-lactose agar medium containing or not 2.5 μg/mL of erythromycin. The transformation rate in the presence or absence of peptide is calculated for each sample; it is expressed as the ratio of erythromycin-resistant cells among the total bacterial population.
The experimental strategy is described below. Strain LMD9-Δblp::PcomX-luxABΔshp316::P32-cat is precultivated in M17-lactose medium. The cells of the preculture were harvested (5000 g, 9 minutes, 20° C.) and washed twice in CDM and then resuspended in CDM. The washed cells are diluted in fresh CDM to obtain an optical density of 0.05 at 600 nm, and then incubated at 37° C. After 1.5 h of incubation, in one set of experiment, 1 μM of one of the tested synthetic peptides and 1 μg/mL of pGIUD0855ery were added to the culture; whereas 1 μg/mL of pGIUD0855ery but no synthetic peptide was added to the second set of experiment. The cultures were grown during 6 hours and serial dilutions were plated on the surface of M17-lactose agar medium containing 2.5 μg/mL of erythromycin to measure transformation efficiency.
Ability of peptides derived from Shp316 to restore the competence defect of LMD9-Δblp::PcomX-luxABΔshp316::P32-cat was further investigated focusing on the synthetic peptide PYFAGCL. Experimental work was performed as described above except that various concentrations of PYFAGCL were used: 0 nM, 1 nM, 10 nM, 100 nM, 500 nM, 1 μM, 2.5 μM and 5 μM. […]

S. thermophilus LMD-9 = test: Natural transformation in CDM upon addition of synthetic peptide
Method: Similarly to the protocol used in example 4, strains LMD-9, LMG18311, CNRZ1066 and JIM8777 were pre-cultivated in M17-lactose medium. The cells of the precultures were harvested (5000 g, 9 minutes, 20° C.) and washed twice in CDM and then resuspended in CDM. The washed cells were diluted in fresh CDM medium to obtain an optical density of 0.05, and then incubated at 37° C. After 1.5 h of incubation, in one set of experiment, 1 μM of one of the tested synthetic peptides and 1 μg/mL of pGIUD0855ery DNA (in case of S. thermophilus strains), or 1 μg/ml of pG+host09 DNA (in case of S. salivarius strains) were added to the culture, whereas 1 μg/mL of DNA but no synthetic peptide was added to the second set of experiment. The cultures were grown during 6 hours and serial dilutions were plated on the surface of M17-lactose agar medium containing 2.5 μg/mL of erythromycin to measure transformation efficiency. Transformed S. thermophilus and S. salivarius cells are selected at 37° C. and 29° C., respectively.
(§1) Similarly to the protocol used in example 4, various S. thermophilus strains, including LMD-9, CNRZ1066 and LMG18311 used as controls, were pre-cultivated in M17-lactose medium. The cells of the precultures were harvested (5000 g, 9 minutes, 20° C.) and washed twice in CDM and then resuspended in CDM. The washed cells were diluted in fresh CDM medium to obtain an optical density of 0.05, and then incubated at 37° C. After 1.5 h of incubation, in one set of experiment, 1 μM of one of the tested synthetic peptides (LPYFAGCL) (SEQ ID NO: 85) and 1 μg/mL of pGIUD0855cat DNA were added to the culture, whereas 1 μg/mL of DNA but no synthetic peptide was added to the second set of experiment. Plasmid pGIUD0855cat is a pUC18-derivative containing a chloramphenicol resistance cassette flanked by 1-kb fragments corresponding to the upstream and downstream regions of stu0855. Upon transformation, it promotes the genetic replacement of stu0855 by P32-cat through homologous recombination (FIG. 7). The cultures were grown during 6 hours and serial dilutions were plated on the surface of M17-lactose agar medium containing 5 μg/mL of chloramphenicol to measure transformation efficiency. Transformed S. thermophilus cells were selected at 37° C.; when transformants were obtained, the transformation efficiency was calculated and is given in Table 9.
The overlapping PCR product was transferred through natural competence in strain LMD-9. Similarly to the protocol used in example 4, strain LMD-9 was pre-cultivated in M17-lactose medium. The cells of the precultures were harvested (5000 g, 9 minutes, 20° C.) and washed twice in CDM and then resuspended in CDM. The washed cells were diluted in fresh CDM medium to obtain an optical density of 0.05, and then incubated at 37° C. After 1.5 hour of incubation, 1 μM of LPYFAGCL (SEQ ID NO: 85) synthetic peptide and 1 μg/mL of the PCR product prepared above (joining the A, B and C fragments) were added to the culture. After the DNA uptake by the bacteria, the P32-cat cassette flanked by the two lox sites spontaneously replaces the his operon by double homologous recombination (FIG. 10). The transformation rate of the overlapping PCR was 1.1×10^−6 (160 Chloramphenicol-resistant CFU/mL). One isolate named CB15 was selected. […]

S. thermophilus DGCC7785 = test: as above; conditions: 1 μM LPYFAGCL, 1 μg/mL pUC18_stu0855::P32cat
Method: as §1

| Substance | Transformation rate, With peptide addition [1] | Restoration of the competence defect ([1]; result in words) | Chloramphenicol-resistant CFU obtained with the overlapping PCR (S. thermophilus LMD-9; 1 μM LPYFAGCL, 1 μg/mL overlapping PCR product) | Transformation rate of the overlapping PCR (S. thermophilus LMD-9; 1 μM LPYFAGCL, 1 μg/mL overlapping PCR product (his operon replacement by lox66-P32cat-lox71)) | Transformation rate, With peptide addition (S. thermophilus LMD-9; 1 μM LPYFAGCL, 1 μg/mL pUC18_stu0855::P32cat, chloramphenicol selection) | Transformation rate, With peptide addition (S. thermophilus DGCC7785) | Transformation rate ([1]; 1 nM PYFAGCL) | Transformation rate ([1]; 10 nM PYFAGCL) | Transformation rate ([1]; 100 nM PYFAGCL) | Transformation rate ([1]; 500 nM PYFAGCL) | Transformation rate ([1]; 1000 nM PYFAGCL) | Transformation rate ([1]; 2500 nM PYFAGCL) | Transformation rate ([1]; 5000 nM PYFAGCL) | Restoration of competence ([1]; concentrations lower than 100 nM, result in words) | Concentration at which maximum efficiency of the peptide was recorded ([1]; dose-response 0 nM to 5 μM) | Transformation rate, With peptide addition (S. thermophilus LMD-9; 1 μM PYFAGCL, 1 μg/mL pGIUD0855ery) | Increase of natural competence upon extracellular peptide addition (S. thermophilus LMD-9; 1 μM peptide in CDM versus no peptide) |
| --- | --- | --- | --- | --- | --- | --- | --- | --- | --- | --- | --- | --- | --- | --- | --- | --- | --- |
| LPYFAGCL (fragment) [synthetic peptide corresponding to a C-terminal fragment of Shp316] | 3.18 × 10^−3 | allowed to restore the competence defect | 160 CFU/mL | 1.1×10^−6 | 5.4 × 10^−3 | 4.1 × 10^−5 |  |  |  |  |  |  |  |  |  |  |  |
| PYFAGCL (fragment) | 4.78 × 10^−3 | allowed to restore the competence defect |  |  |  |  | <10^−8 | <10^−8 | 4.14 × 10^−7 | 1.01 × 10^−3 | 5.15 × 10^−3 | 3.10 × 10^−3 | 6.38 × 10^−3 | did not restore the competence | 1 µM | 3.10 × 10^−3 | 10 fold |
